We go through six compounds from patent US20210322443A1 (MAPREG, priority 2015, published 2021).

One experiment addresses MAP2 (Homo sapiens, UniProt P11137). In words: Binding by displacement of PREG-3H.
A further experiment deals with PC12 cells. The experiment is described as follows: Stimulation of neuritic sprouting in NGF-differentiated PC12 cells. The note with it: NGF 10 ng/ml, steroid 30 μM, 3 days, relative to PREG. In kind it is cell-based. Here is the method: Stimulation of neuritic sprouting is conducted on PC12 cells differentiated in the presence of NGF (10 ng/ml) and the steroid being tested (30 μM) for 3 days. For each condition, the average length of the longest 200 neurites in each cell is measured simultaneously for 3 cultures.

For experiment [1], the target named is purified tubulin and MAP2 (Homo sapiens, UniProt P11137). In words: Increase in optical density at 345 nm of purified tubulin and MAP2 (microtubule polymerization). In kind it is biochemical. Conditions: 37° C., GTP. How it is done:
Activity is measured by the increase in optical density at 345 nm of a mixture of purified tubulin and MAP2, incubated at 37° C. in the presence of GTP.

The target in experiment [2] is T1, human progesterone receptor(PR) (Homo sapiens, UniProt P06401).
T1 construct: expressed in transfected cells; host or cells: HEK293T
T1 sequence (P06401 1-933): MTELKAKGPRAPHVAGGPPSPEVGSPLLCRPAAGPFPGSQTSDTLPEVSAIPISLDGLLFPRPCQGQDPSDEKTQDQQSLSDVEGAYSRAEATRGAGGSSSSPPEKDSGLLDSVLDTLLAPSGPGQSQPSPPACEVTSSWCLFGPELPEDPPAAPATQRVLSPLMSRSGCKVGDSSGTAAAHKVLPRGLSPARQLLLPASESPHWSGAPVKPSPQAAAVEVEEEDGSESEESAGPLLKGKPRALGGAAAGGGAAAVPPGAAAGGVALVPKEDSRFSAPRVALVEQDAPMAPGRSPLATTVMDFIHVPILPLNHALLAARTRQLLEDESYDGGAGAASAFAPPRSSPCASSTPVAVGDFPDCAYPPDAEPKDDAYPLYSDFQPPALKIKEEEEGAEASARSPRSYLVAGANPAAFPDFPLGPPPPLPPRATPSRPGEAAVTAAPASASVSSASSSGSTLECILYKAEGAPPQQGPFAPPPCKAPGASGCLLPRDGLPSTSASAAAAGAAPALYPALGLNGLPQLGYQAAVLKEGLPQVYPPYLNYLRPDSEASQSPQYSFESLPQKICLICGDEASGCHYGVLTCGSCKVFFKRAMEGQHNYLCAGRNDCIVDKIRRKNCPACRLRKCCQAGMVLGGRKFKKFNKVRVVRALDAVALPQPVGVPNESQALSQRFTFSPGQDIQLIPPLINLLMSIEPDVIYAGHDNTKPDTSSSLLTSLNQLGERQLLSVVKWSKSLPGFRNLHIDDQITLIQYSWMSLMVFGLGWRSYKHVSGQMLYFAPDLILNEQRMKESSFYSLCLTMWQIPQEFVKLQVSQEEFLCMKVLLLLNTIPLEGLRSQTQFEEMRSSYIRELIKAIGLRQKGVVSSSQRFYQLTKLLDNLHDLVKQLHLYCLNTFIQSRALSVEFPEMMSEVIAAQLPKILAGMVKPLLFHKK
In words: Progesterone receptor agonist transactivation (MMTV-luciferase) in transfected HEK293T cells. Type of experiment: cell-based. The note with it: 24 hours, increasing amounts, FIG. 1. How it is done:
The main experimental setting used is the following: HEK293T cells were transiently transfected, using calcium phosphate precipitation technology, with expression vectors pSG5hPR (which permits expression of human progesterone receptor(PR)), pFC31-luc (contains the luciferase gene under the control of the MMTV promoter, which is in turn activated by binding of a progestin to progesterone receptor) and pcbetagal (which permits expression of betagalactosidase), and cultured during 24 hours with increasing amounts of various compositions: • 1. […] Test of progesterone receptor […] activity: transfected cells were cultured with progesterone (1 nM) and increasing amounts of RU486 (a well-known progesterone receptor antagonist) or 3-methoxy-pregnenolone. • With this setting, a compound with progesterone receptor antagonist activity competes with progesterone for the occupation of progesterone receptor and results in a progressive loss of transactivation activity when the amount of this compound is increased compared to progesterone.

Sequence of purified tubulin and MAP2 (P11137 whole entry): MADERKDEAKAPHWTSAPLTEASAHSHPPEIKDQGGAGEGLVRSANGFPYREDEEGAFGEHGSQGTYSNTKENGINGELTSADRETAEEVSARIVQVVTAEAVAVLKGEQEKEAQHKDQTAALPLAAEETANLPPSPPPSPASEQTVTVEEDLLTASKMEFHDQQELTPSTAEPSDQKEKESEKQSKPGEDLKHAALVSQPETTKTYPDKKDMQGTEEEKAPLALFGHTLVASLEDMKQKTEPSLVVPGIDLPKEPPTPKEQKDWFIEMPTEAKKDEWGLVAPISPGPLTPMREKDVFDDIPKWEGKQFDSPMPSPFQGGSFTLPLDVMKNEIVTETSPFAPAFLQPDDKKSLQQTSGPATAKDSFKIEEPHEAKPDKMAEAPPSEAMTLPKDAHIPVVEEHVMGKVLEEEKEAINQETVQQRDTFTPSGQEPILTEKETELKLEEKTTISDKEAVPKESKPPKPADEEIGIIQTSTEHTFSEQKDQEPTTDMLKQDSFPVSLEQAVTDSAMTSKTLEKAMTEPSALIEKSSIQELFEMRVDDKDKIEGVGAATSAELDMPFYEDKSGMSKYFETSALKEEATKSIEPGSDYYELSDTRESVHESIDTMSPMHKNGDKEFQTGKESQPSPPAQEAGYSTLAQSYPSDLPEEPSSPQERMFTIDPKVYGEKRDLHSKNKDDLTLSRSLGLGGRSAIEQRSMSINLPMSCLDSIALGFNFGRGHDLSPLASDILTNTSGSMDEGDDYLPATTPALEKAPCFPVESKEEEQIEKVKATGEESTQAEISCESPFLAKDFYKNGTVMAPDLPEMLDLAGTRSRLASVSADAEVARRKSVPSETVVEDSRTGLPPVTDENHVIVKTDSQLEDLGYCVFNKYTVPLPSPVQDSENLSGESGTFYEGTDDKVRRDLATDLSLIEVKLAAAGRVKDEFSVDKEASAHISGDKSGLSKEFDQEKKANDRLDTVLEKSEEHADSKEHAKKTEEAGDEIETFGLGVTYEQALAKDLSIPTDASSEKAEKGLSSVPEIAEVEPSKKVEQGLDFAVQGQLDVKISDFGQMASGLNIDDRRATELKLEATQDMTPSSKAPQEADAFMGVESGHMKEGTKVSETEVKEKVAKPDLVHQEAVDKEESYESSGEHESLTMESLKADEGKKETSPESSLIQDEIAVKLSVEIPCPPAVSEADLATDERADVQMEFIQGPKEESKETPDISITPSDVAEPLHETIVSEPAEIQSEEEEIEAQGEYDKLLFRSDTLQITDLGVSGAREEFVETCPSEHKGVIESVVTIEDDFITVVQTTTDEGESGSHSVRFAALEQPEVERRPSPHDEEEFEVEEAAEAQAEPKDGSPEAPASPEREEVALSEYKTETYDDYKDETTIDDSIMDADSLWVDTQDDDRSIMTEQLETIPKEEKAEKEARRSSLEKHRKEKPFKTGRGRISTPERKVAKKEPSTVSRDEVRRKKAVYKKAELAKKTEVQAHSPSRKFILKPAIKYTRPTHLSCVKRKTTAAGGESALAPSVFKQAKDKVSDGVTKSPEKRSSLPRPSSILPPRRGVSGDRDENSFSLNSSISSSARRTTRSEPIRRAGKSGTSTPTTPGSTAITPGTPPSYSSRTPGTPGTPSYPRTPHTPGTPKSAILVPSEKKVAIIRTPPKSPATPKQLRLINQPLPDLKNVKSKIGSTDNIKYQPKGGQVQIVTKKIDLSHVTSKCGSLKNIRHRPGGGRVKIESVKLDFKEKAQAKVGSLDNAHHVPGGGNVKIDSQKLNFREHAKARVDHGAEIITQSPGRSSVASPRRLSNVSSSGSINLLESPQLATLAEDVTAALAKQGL
Sequence of MAP2 (P11137 whole entry): as above

In the case of `CO[C@H]1CC[C@@]2(C)C(CCC3C2CC[C@@]2(C)C3CC[C@@H]2[C@@H](C)O)C1` (stereo partly drawn) [3B-methoxy-5a-pregnane-20B-ol, 3β-methoxy-5α-pregnane-20β-ol], the “Affinity (index of binding, percent of PREG)” value at MAP2 is 65% of PREG. In the experiment on PC12 cells, the Neuritic sprouting result is given as “++ (equal to)”. The “Activity (percent of PREG)” value in experiment [1] was 65% of PREG.

With `CO[C@H]1CC[C@@]2(C)C(=CC[C@@H]3[C@@H]2CC[C@@]2(C)[C@H]3CC[C@@]2(C(C)=O)C(Cl)Cl)C1` [3β-methoxy-pregna-5-ene-20-one-17α-dichloromethyl], the “Affinity (index of binding, percent of PREG)” value on MAP2 is 53% of PREG. For the same compound, in experiment [1], the “Activity (percent of PREG)” value is 113% of PREG.

For `CO[C@H]1CC[C@@]2(C)C(=CC[C@H]3C4=CC[C@H](C(C)=O)[C@@]4(C)CC[C@@H]32)C1` [3B-methoxy-pregna-5,14-diene-20-one], the “Affinity (index of binding, percent of PREG)” value at MAP2 is recorded as 102% of PREG. The Neuritic sprouting entry in the experiment on PC12 cells is “+ (stimulation is lower than)”. In addition, the “Activity (percent of PREG)” value in experiment [1] is reported as 50% of PREG.

Consider `CC(=O)[C@H]1CC[C@H]2[C@@H]3CCC4=CC(=O)CC[C@]4(C)[C@H]3CC[C@]12C` [progesterone, reference compound], for which the “progesterone receptor agonist activity (transactivation, luciferase expression)” value in experiment [2] was “permits a transactivation activity leading to the expression of luciferase”.

Regarding `CC(=O)[C@H]1CC[C@H]2[C@@H]3CC=C4C[C@@H](O)CC[C@]4(C)[C@H]3CC[C@]12C` [Pregnenolone (PREG), 3β-hydroxypregn-5-en-20-one, reference compound], the “Affinity (index of binding, percent of PREG)” value at MAP2 is recorded as 100% of PREG. Besides, the “Activity (percent of PREG)” value in experiment [1] is on record as 100% of PREG.

As for `CO[C@H]1CC[C@@]2(C)[C@@H](CC[C@@H]3[C@@H]2CC[C@]2(C)[C@@H](C(C)=O)CC[C@@H]32)C1` [3B-methoxy-5a-pregnane-20-one, 3β-methoxy-5α-pregnane-20-one], at MAP2, the “Affinity (index of binding, percent of PREG)” value is on record as 87% of PREG. The Neuritic sprouting result in the experiment on PC12 cells is listed as “+++”. Moreover, the “Activity (percent of PREG)” value in experiment [1] is reported as 10% of PREG.
